This is an account of results in patent publication US20100087351A1, “Perfumes for Linear Citrus Release in Rinse-Off Systems” (Quest International Services B.V., priority 2007, published 2010).

The experiment can be described thus: Odor detection threshold (ODT). As to conditions: for ODT: Table 9. The text has this: Within these defined water-release groups, odorants are then further described based on their experimentally determined odor detection thresholds (ODT) to further characterize the odor impact or olfactive intensity of a citrus and other olfactive types within the herein-described released group of odorants.
Upon their release in headspace, odorants are detected based on their odor detection threshold values. Odor detection thresholds are defined as the lowest concentration of odorants in a selected medium (air or water) to be detected. By including odor values of odorants in the model, one can further improve on the values for predicted performance of once odorants are released from the partition into the air.
Various databases for experimental odor detection threshold values in various partitions such as water and air are available. See Compilation of Odor and Taste Threshold Values Data, American Society for Testing and Materials, F. A. Fazzalari Editor; Booleans Aroma Chemical Information Service (BACIS)).

Each structure is given as a SMILES string.

For `C=CC(C)(O)CCC=C(C)CC` (mixture of isomers) [ETHYL LINALOOL], the ODT worked out at 120 ppb. For the same compound, the odt (Table 11, in ppb) is 120.00. For the same compound, the odt (Table 13, in ppb) worked out at 120.00. This compound also yielded an odt (Table 15) of 120 ppb. Under “Table 17”, this compound had an odt of 440 ppb.

Take `CC1=CCC(C=CC(C)C(C)O)C1(C)C` (stereo in doubt) [EBANOL]: the ODT was 54 ppb. The compound further gave an odt (Table 11, in ppb) of 54.00. The same compound yielded an odt (Table 13, in ppb) of 54.00.

Take `CCCCCCCCCCC=O` [ALDEHYDE C11]: under “Table 13”, the odt is 7.7 ppb.

Regarding `CCCCCCCCCCCC=O` [ALDEHYDE C12 (DODECANAL), DODECANAL], the odt is, setting by setting: (Table 15) 17 ppb; (Table 17) 17 ppb.

Turning to `CCCCCCCC=O` [ALDEHYDE C 8 (OCTANAL), OCTANAL], the odt was 4.8 ppb (Table 15) and 4.5 ppb (Table 17).

Consider `CCCCCCCCCC=O` [ALDEHYDE C 10 (DECANAL), DECANAL], for which the odt reads like this: (Table 15) 8.7 ppb; (Table 17) 6.7 ppb.

As for `C=CCOC(=O)CCC1CCCCC1` [ALLYL CYCLOHXYL PROPIONATE, ALLYL CYCLOHEXYL PROPIONATE], the ODT worked out at 81 ppb. For the setting “Table 11, in ppb”, this compound had an odt of 81.00. The compound further returned an odt (Table 13, in ppb) of 61.00.

Regarding `CCOC(=O)CC1(C)OCCO1` [APPLINAL], the ODT was found to be 55 ppb. Under “Table 11, in ppb”, this compound registered an odt of 55.00. The compound further gave an odt (Table 13, in ppb) of 55.00.

Compound `CCCCC/C=C\CCC=O` [CIS 4 DECENAL] returned an odt (Table 15) of 3.1 ppb and an odt (Table 17) of 3.1 ppb.

The compound `CC/C=C\CCOC(C)=O` [CIS-3-HEXENYL ACETATE] registered an ODT of 170 ppb. Further, the odt (Table 11, in ppb) stood at 170.00. The same compound registered an odt (Table 13, in ppb) of 170.00. The odt (Table 15) is 170 ppb. The compound also displayed an odt (Table 17) of 170 ppb.

For the compound `CC/C=C\CCOC(=O)c1ccccc1O` [CIS-3-HEXENYL SALICYLATE], the ODT is given as 1.9 ppb. This compound also gave an odt (Table 11) of 1.9 ppb. This compound came in with an odt (Table 13) of 1.8 ppb. Besides, for the setting “Table 15”, the odt came out at 1.9 ppb. Under “Table 17”, this compound showed an odt of 1.9 ppb.

For `CC(C)=CCCC(C)=CC=O` [CITRAL], the odt worked out at 12.00 (Table 11, in ppb) and 12.00 (Table 13, in ppb).

In the case of `CC(C)=CCCC(C)CC=O` (stereo not shown) [CITRONELLAL], the odt stood at 33.00 (Table 11, in ppb); 33.00 (Table 13, in ppb); 33 ppb (Table 15); 33 ppb (Table 17).

`CC(C)=CCCC(C)CCO` (stereo not shown) [CITRONELLOL] had an odt (Table 11, in ppb) of 29.00 and an odt (Table 13, in ppb) of 29.00.

Compound `CC(C)=CCCC(C)CC#N` (stereo not shown) [CITRONELLYL NITRILE] displayed an ODT of 71 ppb. Further, the odt (Table 11, in ppb) is on record as 71.00. This compound yielded an odt (Table 13, in ppb) of 71.00. This compound showed an odt (Table 15) of 71 ppb. For the setting “Table 17”, this compound came in with an odt of 71 ppb.

`C=CC(C)CCCC(C)(C)O` (stereo not shown) [DIHYDROMYRCENOL] had an ODT of 810 ppb. Besides, under “Table 11, in ppb”, the odt is 819.00. The compound also registered an odt (Table 13, in ppb) of 810.00. The odt (Table 15) stood at 810 ppb. Further, the odt (Table 17) is 810 ppb.

In turn, `CCOC(=O)CC(C)=O` [ETHYL ACETOACETATE] came in with an ODT of 54 ppb. The same compound displayed an odt (Table 11, in ppb) of 55.00. Where the note is “Table 13, in ppb”, this compound showed an odt of 55.00.

`CCOC(=O)C(C)CC` (stereo not shown) [Ethyl 2-methylbutyrate] showed an ODT of 20 ppb. The compound further returned an odt (Table 11, in ppb) of 20.00. Where the note is “Table 13, in ppb”, the odt is 20.00.

`CCC(C)C(=O)N(C)c1ccccc1` (stereo not shown) [GARDAMIDE] registered an ODT of 24 ppb. For the same compound, the odt (Table 11, in ppb) was 24.00. In addition, the odt (Table 13, in ppb) was found to be 24.00. The odt (Table 15) stood at 24 ppb. This compound also displayed an odt (Table 17) of 24 ppb.

The compound `CCCCCCOC(C)=O` [HEXYL ACETATE] had an ODT of 950 ppb. Moreover, where the note is “Table 11, in ppb”, the odt worked out at 550.00. The compound also came in with an odt (Table 13, in ppb) of 950.00.

`CCCCCCCCCCCC#N` [LAURONITRILE]: where the note is “Table 13”, the odt was 6.7 ppb.

On to `CC1=CC(C)C(C=O)CC1` (stereo not shown) [LIGUSTRAL], for which the odt runs as follows: (Table 11, in ppb) 110.00; (Table 13, in ppb) 110.00; (Table 15) 110 ppb; (Table 17) 110 ppb.

Consider `C=CC(C)(O)CCC=C(C)C` (stereo not shown) [LINALOOL, linalool], for which the odt came to 20 ppb (Table 15) and 20 ppb (Table 17).

In the case of `CCCCCCCCCC=CC=O` [MANDARIN ALDEHYDE], under “Table 13”, the odt is 1.5 ppb.

In the case of `CC(CC=O)CCc1ccccc1` (stereo not shown) [MEFRANAL], the ODT worked out at 17 ppb. The compound also displayed an odt (Table 11, in ppb) of 17.00. In addition, the odt (Table 13, in ppb) is on record as 17.00. The compound further had an odt (Table 15) of 17 ppb. The odt (Table 17) was 17 ppb.

Consider `CC(C)=CCCC(C)C=O` (stereo not shown) [MELONAL], for which the odt reads like this: (Table 15) 1.5 ppb; (Table 17) 1.5 ppb.

`CCCCCC1C(=O)CCC1CC(=O)OC` (stereo not shown) [METHYL DIHYDRO JASMONATE] displayed an ODT of 0.23 ppb. Moreover, the odt (Table 11) amounted to 0.23 ppb. The compound further yielded an odt (Table 13) of 0.23 ppb.

As for `CCCCCCC#CC(=O)OC` [METHYL OCTINE CARBONATE], the odt (Table 15) was 9.7 ppb and the odt (Table 17) is 8.7 ppb.

In turn, `CCC(CC)C(=O)N(C)c1cccc(C)c1` [PARADISAMIDE] yielded an odt (Table 13) of 0.8 ppb, an odt (Table 15) of 0.6 ppb and an odt (Table 17) of 0.6 ppb.

`CC1CC(C)(c2ccccc2)CO1` (stereo not shown) [RHUBAFURAN]: the odt was found to be 440.00 (Table 11, in ppb); 440.00 (Table 13, in ppb); 440 ppb (Table 15); 440 ppb (Table 17).

`CC(C)CC1CCCC(C)(O)C1` (stereo not shown) [ROSSITOL] showed an ODT of 440 ppb. The compound also had an odt (Table 11, in ppb) of 440.00. Also, for the setting “Table 13, in ppb”, the odt stood at 440.00. This compound had an odt (Table 15) of 440 ppb. This compound also yielded an odt (Table 17) of 120 ppb.

In the case of `CC(=O)OC(C)c1ccccc1` (stereo not shown) [STRALLYL ACETATE, STYRALLYL ACETATE], the odt came to 110 ppb (Table 15) and 110 ppb (Table 17).

As for `CCC(C)(O)CCCC(C)C` (stereo not shown) [TETRAHYDROLINALOOL], the ODT was 380 ppb. For the same compound, under “Table 11, in ppb”, the odt was determined as 380.00. For the same compound, for the setting “Table 13, in ppb”, the odt amounted to 380.00.

On to `CC/C=C\CC/C=C/C=O` [TRANS 2 CIS 6 NONADENAL, TRANS 2 CIS 6 NONADIENAL], for which the odt is, setting by setting: (Table 15) 0.2 ppb; (Table 17) 0.2 ppb.

With `CC/C=C\CC/C=C/CO` [TRANS 2 CIS 6 NONADENOL, TRANS 2 CIS 6 NONADIENOL], the odt is, setting by setting: (Table 15) 1.5 ppb; (Table 17) 1.5 ppb.

With `CCCCCCCCCCC=CC#N` [TRIDECEN 2 NITRILE], the odt amounted to 8.7 ppb (Table 15) and 6.7 ppb (Table 17).

The compound `CCC=C(C)C(O)CCCCC` (stereo not shown) [UNDECAVERTOL, 4-Methyl-3-decen-5-ol] yielded an odt (Table 15) of 28 ppb and an odt (Table 17) of 28 ppb.

Compound `C=C(C)[C@H]1CC=C(C)CC1` [d-LIMONINE, d-1-Methyl-4-isopropenyl-1-cyclohexene] yielded an ODT of 430 ppb. Under “Table 11, in ppb”, this compound had an odt of 430.00. Further, the odt (Table 13, in ppb) was 430.00. For the setting “Table 15”, this compound had an odt of 430 ppb. Where the note is “Table 17”, this compound showed an odt of 430 ppb.
